pEC50: −log10 of the molar value.
Columns and labels:
[1] = tested on: YAP/TAZ-TEAD transcription; assay: Reporter gene assay for measuring the inhibition of YAP/TAZ-TEAD transcription (TEAD-responsive element luciferase reporter in Hek293T cells); assay type: cell-based; settings: Homo sapiens, HEK-293T, 24 hours incubation
Summary of the method: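 Hek293T cells transiently transfected with a TEAD-responsive element luciferase reporter were plated onto compounds and incubated 24 h at 37 °C/5% CO2. SteadyLite luminescence gave percent inhibition, normalised to vehicle (0%) and positive control inhibitor (100%); EC50 derived.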

[2] = tested on: H2452; assay: Mesothelioma cell line proliferation assay, H2452; assay type: cell-based; settings: Homo sapiens, NCI-H2452; H2452 cells
[3] = tested on: NCI-H226; assay: Mesothelioma cell line proliferation assay (ATPlite), NCI-H226; assay type: cell-based; settings: Homo sapiens, 144 h; NCI-H226 cells, 6 days, ATPlite cell viability
Summary of the method: (§1)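 Mesothelioma cells seeded at 1500 cells/well in RPMI 1640 with 10% FBS, incubated overnight, then treated with compound dose-response in DMSO for 6 days at 37° C, 5% CO2. Viability read by ATPlite luminescence; percent inhibition used to derive EC50.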

[4] = tested on: NCI-H2052; assay: Mesothelioma cell line proliferation assay (ATPlite), NCI-H2052; assay type: cell-based; settings: Homo sapiens, NCI-H2052, 144 h, NCI-H2052 cells, 6 days, ATPlite cell viability
Summary of the method: as §1

[5] = tested on: YAP; settings: mouse models of YAP-driven tumorigenesis; cited from earlier work
[6] = tested on: NF2 mutant mesothelioma cell lines; settings: NF2 mutant mesothelioma cell lines (but not WT mesothelioma); cited from earlier work

Molecule	pEC50 [1]	pEC50 [2]	pEC50 [3]	pEC50 [4]	suppression of the oncogenic activity of YAP [5]	sensitivity of YAP-TEAD transcription [6]	sensitivity of viability [6]
C=CC(=O)NCc1cnc(-c2cccc(Cl)c2)cc1-c1ccn(C(F)F)n1 [compound 213, N-((6-(3-chlorophenyl)-4-(1-(difluoromethyl)-1H-pyrazol-3-yl)pyridin-3-yl)methyl)acrylamide]	> 6.00	–	> 6.00	5.00 to 6.00	–	–	–
C=CC(=O)NCc1cnc(-c2cccc(C(F)(F)F)c2)cc1-c1ccn(C(F)F)n1 [compound 215, N-((4-(1-(difluoromethyl)-1H-pyrazol-3-yl)-6-(3-(trifluoromethyl)phenyl)pyridin-3-yl)methyl)acrylamide]	> 6.00	–	> 6.00	5.00 to 6.00	–	–	–
C=CC(=O)NCc1cnc(N2CCC(F)(F)CC2)cc1-c1ccn(C(F)F)n1 [compound 221, N-((4-(1-(difluoromethyl)-1H-pyrazol-3-yl)-6-(4,4-difluoropiperidin-1-yl)pyridin-3-yl)methyl)acrylamide]	> 6.00	–	> 6.00	5.00 to 6.00	–	–	–
C=CC(=O)NCc1cc(-c2ccc(F)cc2)cc(-c2cnn(C(F)F)c2)n1 [compound 227, N-((6-(1-(difluoromethyl)-1H-pyrazol-4-yl)-4-(4-fluorophenyl)pyridin-2-yl)methyl)acrylamide]	> 6.00	–	> 6.00	< 5.00	–	–	–
C=CC(=O)NCc1cnc(-c2ccc(F)cc2)cc1-n1ccc(C)n1 [compound 240, N-((6-(4-fluorophenyl)-4-(3-methyl-1H-pyrazol-1-yl)pyridin-3-yl)methyl)acrylamide]	> 6.00	–	> 6.00	> 6.00	–	–	–
C=CC(=O)NCc1ccc(-c2ccc(F)cc2)cc1-n1ccc(C)n1 [compound 241, N-((4′-fluoro-3-(3-methyl-1H-pyrazol-1-yl)-[1,1′-biphenyl]-4-yl)methyl)acrylamide]	> 6.00	–	> 6.00	5.00 to 6.00	–	–	–
C=CC(=O)NCc1cnc(-c2ccc(F)cc2)cc1-n1cc(C)cn1 [compound 243, N-((6-(4-fluorophenyl)-4-(4-methyl-1H-pyrazol-1-yl)pyridin-3-yl)methyl)acrylamide]	> 6.00	–	> 6.00	5.00 to 6.00	–	–	–
C=CC(=O)NCc1cnc(-c2ccc(F)cc2)cc1-n1ncc(C)n1 [compound 244, N-((6-(4-fluorophenyl)-4-(4-methyl-2H-1,2,3-triazol-2-yl)pyridin-3-yl)methyl)acrylamide]	> 6.00	–	> 6.00	> 6.00	–	–	–
C=CC(=O)NCc1cnc(-c2ccc(F)cc2)nc1-c1ccn(C(F)F)n1 [compound 254, N-((4-(1-(difluoromethyl)-1H-pyrazol-3-yl)-2-(4-fluorophenyl)pyrimidin-5-yl)methyl)acrylamide]	> 6.00	–	> 6.00	> 6.00	–	–	–
verteporfin	–	–	–	–	significantly suppressed the oncogenic activity of YAP	sensitive	sensitive

Second part, led by results:

pEC50 [1]	pEC50 [2]	pEC50 [3]	pEC50 [4]	Molecule	suppression of the oncogenic activity of YAP [5]	sensitivity of YAP-TEAD transcription [6]	sensitivity of viability [6]
> 6.00	< 5.00	5.00 to 6.00	–	CNS(=O)(=O)CCNc1ccc(-c2ccc(F)cc2)cc1-c1ccn(Cc2cccnc2)n1 [compound 086, 2-((4′-fluoro-3-(1-(pyridin-3-ylmethyl)-1H-pyrazol-3-yl)-[1,1′-biphenyl]-4-yl)amino)-N-methylethane-1-sulfonamide]	–	–	–
> 6.00	< 5.00	5.00 to 6.00	–	CNS(=O)(=O)CCNc1ccc(-c2ccc(C(F)(F)F)cc2)cc1-c1ccn(Cc2cccnc2)n1 [compound 087, N-methyl-2-((3-(1-(pyridin-3-ylmethyl)-1H-pyrazol-3-yl)-4′-(trifluoromethyl)-[1,1′-biphenyl]-4-yl)amino)ethane-1-sulfonamide]	–	–	–
> 6.00	< 5.00	> 6.00	–	CNS(=O)(=O)CCNc1ccc(-c2ccc(F)c(F)c2)cc1-c1ccn(Cc2cccnc2)n1 [compound 093, 2-((3′,4′-difluoro-3-(1-(pyridin-3-ylmethyl)-1H-pyrazol-3-yl)-[1,1′-biphenyl]-4-yl)amino)-N-methylethane-1-sulfonamide]	–	–	–
> 6.00	< 5.00	< 5.00	–	CNS(=O)(=O)CCNc1ccc(-c2ccccc2)cc1-c1ccn(Cc2ccccc2)n1 [compound 102, 2-((3-(1-benzyl-1H-pyrazol-3-yl)-[1,1′-biphenyl]-4-yl)amino)-N-methylethane-1-sulfonamide]	–	–	–
> 6.00	< 5.00	< 5.00	–	CNS(=O)(=O)CCNc1ccc(-c2ccc(F)cc2)cc1-c1ccn(C)n1 [compound 117, 2-((4′-fluoro-3-(1-methyl-1H-pyrazol-3-yl)-[1,1′-biphenyl]-4-yl)amino)-N-methylethane-1-sulfonamide]	–	–	–
> 6.00	< 5.00	5.00 to 6.00	–	CNS(=O)(=O)CCNc1ccc(-c2ccc(C(F)(F)F)cc2)cc1-c1ccn(C)n1 [compound 118, N-methyl-2-((3-(1-methyl-1H-pyrazol-3-yl)-4′-(trifluoromethyl)-[1,1′-biphenyl]-4-yl)amino)ethane-1-sulfonamide]	–	–	–
> 6.00	< 5.00	< 5.00	–	CNS(=O)(=O)CCNc1ccc(-c2cccc(F)c2)cc1-c1ccn(C)n1 [compound 119, 2-((3′-fluoro-3-(1-methyl-1H-pyrazol-3-yl)-[1,1′-biphenyl]-4-yl)amino)-N-methylethane-1-sulfonamide]	–	–	–
> 6.00	< 5.00	5.00 to 6.00	–	CNS(=O)(=O)CCNc1ccc(-c2ccc(F)c(F)c2)cc1-c1ccn(C)n1 [compound 124]	–	–	–
> 6.00	–	> 6.00	> 6.00	C=CC(=O)NCc1cnc(-c2ccc(F)cc2)cc1-c1ccn(C2CC2)n1 [compound 206, N-((4-(1-cyclopropyl-1H-pyrazol-3-yl)-6-(4-fluorophenyl)pyridin-3-yl)methyl)acrylamide]	–	–	–
> 6.00	–	> 6.00	> 6.00	C=CC(=O)NCc1cnc(-c2ccc(F)cc2)cc1-c1ccn(C(F)F)n1 [compound 207, N-((4-(1-(difluoromethyl)-1H-pyrazol-3-yl)-6-(4-fluorophenyl)pyridin-3-yl)methyl)acrylamide]	–	–	–
> 6.00	–	> 6.00	5.00 to 6.00	C=CC(=O)NCc1cnc(-c2cccc(F)c2)cc1-c1ccn(C(F)F)n1 [compound 211, N-((4-(1-(difluoromethyl)-1H-pyrazol-3-yl)-6-(3-fluorophenyl)pyridin-3-yl)methyl)acrylamide]	–	–	–

From patent publication US12552772B2, “2-pyrazole anilines and related analogs for inhibiting YAP/TAZ-TEAD” (KATHOLIEKE UNIVERSITEIT LEUVEN, priority 2021, dated 2026)
